Laboratory results: PMC12736018, “Stereoselective Cytotoxicity of Enantiopure 3,3-Dichloro-γ-lactams: Correlating In Vitro Activity with In Vivo Tolerability” (Molecules, 2025)
Values after ≈ are worked out from the molar mass of the structure shown.

Experiments:
3T3 cells [1] = test: MTT cell viability assay, 3T3; format: cell-based; details: Mus musculus, NIH3T3; 3T3, MTT, 24 h
Method: (§1) The murine Swiss albino fibroblast (3T3), the immortal human keratinocyte (HaCaT), the squamous cell carcinoma (A431), the human epithelial carcinoma (HeLa) and the human breast adenocarcinoma (MCF-7) cell lines were sourced from Celltec UB (Barcelona, Spain). All cells were maintained and grown in DMEM medium (4.5 g/L glucose) supplemented with 10% (v/v) FBS, 2 mM L-glutamine, 100 U/mL penicillin and 100 μg/mL streptomycin at 37 °C, 5% CO2. Cells were routinely cultured in 75 cm^2 culture flasks and were trypsinized using trypsin-EDTA when the cells reached approximately 80%. Cell concentration in the resulting suspension was assessed using the trypan blue assay, which enables direct discrimination between viable (unstained) and non-viable (blue) cells.
(§2) T3 and HaCaT cells (1 × 10^5 cells/mL), along with A431, HeLa, and MCF-7 cells (5 × 10^4 cells/mL), were cultured at defined seeding densities in the 60 central wells of a 96-well plate. Cells were first incubated for 24 h under standard incubator conditions (5% CO2, 37 °C). After this period, the culture medium was removed, and the cells were incubated for an additional 24 h with their corresponding compound solutions (1 mg/mL) previously diluted in a minimum amount of DMF (dimethylformamide) and then in DMEM medium supplemented with 5% FBS (100 µL) at the required concentration range (20 to 250 µg/mL). Cell viability following exposure to the lactam derivatives was evaluated using two complementary assays: NRU and MTT.
(§3) Only living cells can reduce the yellow tetrazolium salt 3-(4,5-dimethyl-2-thiazolyl)-2,5-diphenyltetrazolium bromide (MTT) to insoluble purple formazan crystals. After a 24 h incubation of the cells with their corresponding NPs, the medium was removed and 100 µL of MTT (Sigma-Aldrich, St. Louis, MO, USA) in PBS (5 mg/mL) diluted 1:10 in culture medium without phenol red and without FBS (Lonza, Verviers, Belgium) was added to the cells. After 3 h of incubation, the medium was removed. Thereafter, 100 µL of DMSO (Sigma-Aldrich, St. Louis, MO, USA) was added to each well to dissolve the purple formazan crystals. Agitation and absorbance measurements of the extracted solution were carried out under the same conditions described for the NRU assay. The effect of each treatment was then expressed as the percentage of tetrazolium salt reduction by viable cells relative to untreated controls.
(§4) The half-maximal inhibitory concentration (IC50) values for the different formulations, across cell lines and experimental endpoints, were obtained by fitting the concentration-dependent viability curves. […] These findings reflect the very low cytotoxicity of the compounds toward these cell lines.

HaCaT cells [2] = test: MTT cell viability assay, HaCaT; format: cell-based; details: Homo sapiens, 24 h
Method: as §1, §2, §3, §4

A431 cells [3] = test: MTT cell viability assay, A431; format: cell-based; details: Homo sapiens, A-431, 24 h
Method: as §1, §2, §3, §4

HeLa cells [4] = test: MTT cell viability assay, HeLa; format: cell-based; details: Homo sapiens, 24 h
Method: as §1, §2, §3, §4

MCF-7 cells [5] = test: MTT cell viability assay, MCF-7; format: cell-based; details: Homo sapiens, MCF7; MCF-7, MTT, 24 h
Method: as §1, §2, §3, §4

3T3 cells [6] = test: NRU cell viability assay, 3T3; format: cell-based; details: Mus musculus, NIH3T3; 3T3, NRU, 24 h
Method: as §1, §2
(§5) The neutral red uptake (NRU) assay is based on the accumulation of dye in the lysosomes of viable cells. After the cells were incubated for 24 h with the corresponding systems, the medium was removed, and the solutions were incubated with the NR dye (Sigma-Aldrich, St. Louis, MO, USA) solution (50 µg/mL) dissolved in the medium, without FBS and without phenol red (Lonza, Verviers, Belgium), for 3 h. Cells were then washed with sterile PBS, followed by the addition of 100 µL of a solution containing 50% absolute ethanol and 1% acetic acid in distilled water to extract the dye. To promote the total dissolution of the dye, plates were placed in a microtiter-plate shaker for 5 min at room temperature. The absorbance of the resulting solutions was measured at 550 nm (Bio-Rad 550 microplate reader, Bio-Rad California, Hercules, CA, USA). Finally, the effect of each treatment was calculated as the percentage of dye uptake by viable cells relative to the control cells (cells without any treatment). […]

HaCaT cells [7] = test: NRU cell viability assay, HaCaT; format: cell-based; details: Homo sapiens, 24 h
Method: as §1, §2, §5

A431 cells [8] = test: NRU cell viability assay, A431; format: cell-based, human; details: Homo sapiens, A-431, 24 h
Method: as §1, §2
(§6) The neutral red uptake (NRU) assay is based on the accumulation of dye in the lysosomes of viable cells. After the cells were incubated for 24 h with the corresponding systems, the medium was removed, and the solutions were incubated with the NR dye (Sigma-Aldrich, St. Louis, MO, USA) solution (50 µg/mL) dissolved in the medium, without FBS and without phenol red (Lonza, Verviers, Belgium), for 3 h. Cells were then washed with sterile PBS, followed by the addition of 100 µL of a solution containing 50% absolute ethanol and 1% acetic acid in distilled water to extract the dye. To promote the total dissolution of the dye, plates were placed in a microtiter-plate shaker for 5 min at room temperature. The absorbance of the resulting solutions was measured at 550 nm (Bio-Rad 550 microplate reader, Bio-Rad California, Hercules, CA, USA). Finally, the effect of each treatment was calculated as the percentage of dye uptake by viable cells relative to the control cells (cells without any treatment). Finally, the effect of each treatment was calculated as the percentage of dye retained by viable cells compared with untreated control cells.
as §4

HeLa cells [9] = test: NRU cell viability assay, HeLa; format: cell-based, human; details: Homo sapiens, 24 h
Method: as §1, §2, §6, §4

MCF-7 cells [10] = test: NRU cell viability assay, MCF-7; format: cell-based, human; details: Homo sapiens, MCF7; MCF-7, NRU, 24 h
Method: as §1, §2, §6, §4

Hemolysis assay = format: cell-based; details: human, human erythrocyte suspension, pH 7.4, 10 and 80 µg/mL
Method: Human blood samples were obtained from the Banc de Sang i Teixits de Barcelona (Barcelona, Spain) under the Catalan Department of Health. Blood was collected in tubes containing the anticoagulant EDTA-K3. Samples were centrifuged at 3000 rpm and 4 °C for 10 min (Megafuge 2.0 R, Heraeus Instruments, Hanau, Germany) to promote sedimentation, after which plasma was carefully eliminated using a Pasteur pipette. The remaining pellet was washed with PBS (pH 7.4) three times to remove residual leukocytes and platelets while concentrating erythrocytes. After the final wash, the erythrocyte pellet was resuspended in PBS (pH 7.4) at a 1:1 ratio to achieve a final erythrocyte concentration of 8 × 10^9 cells/mL.
The hemolysis assay is used to evaluate the ability of the tested compounds to disrupt erythrocyte membranes. Stock solutions of each compound were prepared in PBS (pH 7.4) at a concentration of 1 mg/mL. Volumes ranging from 10 to 80 μL were transferred into polystyrene tubes, followed by the addition of 25 µL of the erythrocyte suspension, bringing the total volume to 1 mL. The samples were incubated at room temperature under gentle rotation and subsequently centrifuged at 10,000 rpm for 5 min. The absorbance of the resulting supernatants at 540 nm (Shimadzu UV-160A, Shimadzu, Duisburg, Germany) was measured and compared with that of the positive control (erythrocytes hemolyzed with distilled water) and the negative control (erythrocytes suspension in PBS, pH 7.4).
The degree of hemolysis was determined using the following equation:Hemolysis (%) = 100 × (Abs − Abs0)/(Abs100 − Abs0) where Abs, Abs0 and Abs100 are the absorbance of the test samples, of the suspension treated with isotonic phosphate–buffered saline (PBS) and of the suspension of complete hemolysis treated with distilled water, respectively.

[11] = test system: 3T3, HaCaT, A431, HeLa and MCF-7 cells; test: Cell viability assays (MTT and NRU), summary across the cell panel; format: cell-based; details: for IC50: MTT and NRU, summary statement over cell lines
Method: as §1, §2
(§7) The neutral red uptake (NRU) assay is based on the accumulation of dye in the lysosomes of viable cells. After the cells were incubated for 24 h with the corresponding systems, the medium was removed, and the solutions were incubated with the NR dye (Sigma-Aldrich, St. Louis, MO, USA) solution (50 µg/mL) dissolved in the medium, without FBS and without phenol red (Lonza, Verviers, Belgium), for 3 h. […] The absorbance of the resulting solutions was measured at 550 nm (Bio-Rad 550 microplate reader, Bio-Rad California, Hercules, CA, USA). Finally, the effect of each treatment was calculated as the percentage of dye uptake by viable cells relative to the control cells (cells without any treatment). […]
(§8) Only living cells can reduce the yellow tetrazolium salt 3-(4,5-dimethyl-2-thiazolyl)-2,5-diphenyltetrazolium bromide (MTT) to insoluble purple formazan crystals. […] Agitation and absorbance measurements of the extracted solution were carried out under the same conditions described for the NRU assay. The effect of each treatment was then expressed as the percentage of tetrazolium salt reduction by viable cells relative to untreated controls. […]

A431 tumor cells = test system: A431 tumor cells; design: method as in PMID 40283925; details: racemic form; cited from earlier work
3T3 fibroblasts = test system: 3T3 fibroblasts; design: method as in PMID 40283925; details: normal 3T3 fibroblasts, racemic form; cited from earlier work
zebrafish = test system: zebrafish; design: method as in PMID 40283925; details: tested previously in zebrafish; cited from earlier work
[12] = Cell viability assays (MTT and NRU), summary across the cell panel; format: cell-based; details: MTT, most cell lines, highest tested concentration
Method: as §1, §2, §7, §8

different cell lines = test system: different cell lines; design: method as in PMID 38731527; details: across different cell lines, racemic form; cited from earlier work

Structure (SMILES)	IC50 (3T3 cells [1])	IC50 (HaCaT cells [2])	IC50 (A431 cells [3])	IC50 (HeLa cells [4])	IC50 (MCF-7 cells [5])	IC50 (3T3 cells [6])	IC50 (HaCaT cells [7])	IC50 (A431 cells [8])	IC50 (HeLa cells [9])	IC50 (MCF-7 cells [10])	hemolysis (Hemolysis assay)	IC50 [11]	IC50 (A431 tumor cells)	IC50 (3T3 fibroblasts)	LC50 (zebrafish)	viability at 24 h, 250 µg/mL [12]	cell survival ([11]; NRU, several lines, 250 µg/mL)	IC50 (different cell lines)
C[C@H](c1ccccc1)N1C[C@@H](C)C(Cl)(Cl)C1=O [epi-4]	145 µg/mL (≈ 534 µM)	> 250 µg/mL	177 µg/mL (≈ 651 µM)	> 250 µg/mL	> 250 µg/mL	153 µg/mL (≈ 563 µM)	> 250 µg/mL	61.7 µg/mL (≈ 227 µM)	> 250 µg/mL	> 250 µg/mL	< 2%	> 100 µg/mL						
CC(C)(C)N1C(=O)C(Cl)(Cl)C1c1ccccc1 (stereo not drawn) [β-lactam 1]													35 to 71 µg/mL	> 210 µg/mL	14.9 µg/mL (≈ 54.7 µM)			
C[C@@H](c1ccccc1)N1C[C@H](C)C(Cl)(Cl)C1=O [epi-3]	68.1 µg/mL (≈ 250 µM)	> 250 µg/mL	170 µg/mL (≈ 624 µM)	> 250 µg/mL	> 250 µg/mL	77.2 µg/mL (≈ 284 µM)	> 250 µg/mL	123 µg/mL (≈ 452 µM)	214 µg/mL (≈ 786 µM)	> 250 µg/mL	< 2%	> 68 µg/mL				≥ 80%	around 60%	
CC(C)(C)N1CC(CCl)C(Cl)(Cl)C1=O (stereo not drawn) [compound 2]																		100 to 250 µg/mL
